Data from ChEMBL document CHEMBL6115026, “Synthesis and Biological Evaluation of Peripheral 5HT2B Antagonists for Liver Fibrosis” (J Med Chem, 2025).
Blank lines part the entries; values can stand above or below the compound they belong to. Calls of active or inactive are those of the source. The calls are words filed in the database; no cut-off is given here.

Columns and labels:
[1] = biological target: T1, 5-hydroxytryptamine receptor 2B (Homo sapiens, UniProt P41595); experiment: Antagonist activity at 5HT2B (unknown origin) expressed in FRT cells co-expressing ANO1 and YFP assessed as inhibition of 5HT-induced increase in iodide influx at 1 uM preincubated with compound for 10 mins followed by 5-HT addition and measured after 8 sec by YFP fluorescence quenching analysis relative to control; type: cell-based; settings: time 608.0 sec
[2] = biological target: T1, 5-hydroxytryptamine receptor 2B; experiment: Antagonist activity at 5HT2B (unknown origin) expressed in FRT cells co-expressing ANO1 and YFP assessed as inhibition of 5HT-induced increase in iodide influx preincubated with compound for 10 mins followed by 5-HT addition and measured after 8 sec by YFP fluorescence quenching analysis; type: cell-based
[3] = biological target: T1, 5-hydroxytryptamine receptor 2B; experiment: Binding affinity to 5-HT2B (unknown origin)
[4] = Drug concentration in male mouse plasma at 5 mg/kg, ip measured after 0.5 hrs by LC-MS/MS analysis; type: ADME, organism-based
[5] = Drug concentration in male mouse brain at 5 mg/kg, ip measured after 0.5 hrs by LC-MS/MS analysis; type: ADME, organism-based; settings: read-out: Ct
[6] = Metabolic stability in mouse liver microsomes assessed as parent compound remaining measured after 30 mins in presence of NADPH by LC-MS/MS analysis; type: ADME, Microsome; settings: read-out: Stability
[7] = Metabolic stability in rat liver microsomes assessed as parent compound remaining measured after 30 mins in presence of NADPH by LC-MS/MS analysis; type: ADME, Microsome; settings: read-out: Stability
[8] = Metabolic stability in human liver microsomes assessed as parent compound remaining measured after 30 mins in presence of NADPH by LC-MS/MS analysis; type: ADME, Microsome; settings: read-out: Stability
hERG (KCNH2) = hERG (KCNH2) (Homo sapiens, UniProt Q12809); experiment: Inhibition of human ERG at 10 uM incubated for 2 hrs by fluorescence polarization assay relative to control; type: toxicity
CYP1A2 = biological target: T2, CYP1A2 (Homo sapiens, UniProt P05177); experiment: Inhibition of CYP1A2 (unknown origin) at 1 uM preincubated for 10 mins followed by NADPH addition and measured after 20 mins by luminescence based microplate reader analysis relative to control; type: ADME; settings: time 30 min
T2 sequence (P05177 whole entry): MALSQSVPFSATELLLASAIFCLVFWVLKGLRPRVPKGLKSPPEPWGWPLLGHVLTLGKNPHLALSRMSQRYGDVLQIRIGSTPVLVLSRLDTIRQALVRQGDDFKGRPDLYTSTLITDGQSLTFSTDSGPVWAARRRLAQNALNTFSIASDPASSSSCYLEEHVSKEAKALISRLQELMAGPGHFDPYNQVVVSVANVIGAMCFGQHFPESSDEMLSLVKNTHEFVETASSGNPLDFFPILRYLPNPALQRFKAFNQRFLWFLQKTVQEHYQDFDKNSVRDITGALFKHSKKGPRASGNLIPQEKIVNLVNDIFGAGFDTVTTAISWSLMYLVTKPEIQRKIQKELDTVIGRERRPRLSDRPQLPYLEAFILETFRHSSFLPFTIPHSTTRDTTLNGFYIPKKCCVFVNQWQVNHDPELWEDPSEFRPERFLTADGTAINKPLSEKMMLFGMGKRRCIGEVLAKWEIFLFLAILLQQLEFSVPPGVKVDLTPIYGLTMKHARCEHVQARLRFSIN

CYP2C9 = CYP2C9 (Homo sapiens, UniProt P11712); experiment: Inhibition of CYP2C9 (unknown origin) at 1 uM preincubated for 10 mins followed by NADPH addition and measured after 20 mins by luminescence based microplate reader analysis relative to control; type: ADME; settings: time 30 min
CYP2C19 = CYP2C19 (Homo sapiens, UniProt P33261); experiment: Inhibition of CYP2C19 (unknown origin) at 1 uM preincubated for 10 mins followed by NADPH addition and measured after 20 mins by luminescence based microplate reader analysis relative to control; type: ADME; settings: time 30 min
CYP2D6 = CYP2D6 (Homo sapiens, UniProt P10635); experiment: Inhibition of CYP2D6 (unknown origin) at 1 uM preincubated for 10 mins followed by NADPH addition and measured after 20 mins by luminescence based microplate reader analysis relative to control; type: ADME; settings: time 30 min
CYP3A4 = CYP3A4 (Homo sapiens, UniProt P08684); experiment: Inhibition of CYP3A4 (unknown origin) at 1 uM preincubated for 10 mins followed by NADPH addition and measured after 20 mins by luminescence based microplate reader analysis relative to control; type: ADME; settings: time 30 min
[9] = Cytotoxicity against African green monkey Vero cells assessed as reduction in cell viability incubated for 24 hrs by EZ-CYTOX cell viability assay; type: toxicity, cell-based, Chlorocebus sabaeus
[10] = Cytotoxicity against HFL1 cells assessed as reduction in cell viability incubated for 24 hrs by EZ-CYTOX cell viability assay; type: toxicity, cell-based; settings: human
[11] = Cytotoxicity against mouse L929 cells assessed as reduction in cell viability incubated for 24 hrs by EZ-CYTOX cell viability assay; type: toxicity, cell-based
[12] = Cytotoxicity against mouse NIH3T3 cells assessed as reduction in cell viability incubated for 24 hrs by EZ-CYTOX cell viability assay; type: toxicity, cell-based
[13] = Cytotoxicity against CHO-K1 cells assessed as reduction in cell viability incubated for 24 hrs by EZ-CYTOX cell viability assay; type: toxicity, cell-based, Cricetulus griseus; settings: Chinese hamster
[14] = biological target: 5-hydroxytryptamine receptor 2A (Homo sapiens) (UniProt P28223); experiment: Inhibition of 5-HT2A (unknown origin) at 1 uM relative to control
[15] = Half-life in male ICR mouse at 2 mg/kg, iv measured after 24 hrs by LC-MS/MS analysis; type: ADME, organism-based; settings: in vivo
[16] = AUC (0 to t) in male ICR mouse at 2 mg/kg, iv measured after 24 hrs by LC-MS/MS analysis; type: ADME, organism-based; settings: in vivo
[17] = Clearance in male ICR mouse at 2 mg/kg, iv measured after 24 hrs by LC-MS/MS analysis; type: ADME, organism-based; settings: in vivo
[18] = Volume of distribution at steady state in male ICR mouse at 2 mg/kg, iv measured after 24 hrs by LC-MS/MS analysis; type: ADME, organism-based; settings: in vivo, read-out: Vdss
[19] = Toxicity in CCl4-induced male C57BL/6J mouse model of liver fibrosis assessed as effect on liver gross morphology at 10 to 30 mg/kg, ip co-administered daily with CCl4 for 4 weeks; type: organism-based; settings: in vivo, 672 h, dose 10-30 mg/kg
Mus musculus [20] = experiment: Antifibrotic activity in CCl4-induced male C57BL/6J mouse model of liver fibrosis assessed as reduction in fibrotic deposition in liver at 10 to 30 mg/kg, ip co-administered daily with CCl4 for 4 weeks by sirius red staining based analysis; type: functional, organism-based; settings: dose 10-30 mg/kg
Mus musculus [21] = experiment: Antifibrotic activity in CCl4-induced male C57BL/6J mouse model of liver fibrosis assessed as reduction in fibrotic deposition in liver at 10 to 30 mg/kg, ip co-administered daily with CCl4 for 4 weeks by masson's trichrome staining based analysis; type: functional, organism-based; settings: dose 10-30 mg/kg
Mus musculus [22] = experiment: Antifibrotic activity in CCl4-induced male C57BL/6J mouse model of liver fibrosis assessed as reduction in fibrotic deposition in liver at 10 to 30 mg/kg, ip co-administered daily with CCl4 for 4 weeks by H and E staining based analysis; type: functional, organism-based; settings: dose 10-30 mg/kg
Mus musculus [23] = experiment: Antifibrotic activity in CCl4-induced male C57BL/6J mouse model of liver fibrosis assessed as reduction in fibrosis be measuring fibrotic stage at 10 to 30 mg/kg, ip co-administered daily with CCl4 for 4 weeks; type: functional, organism-based; settings: dose 10-30 mg/kg
Mus musculus [24] = experiment: Antifibrotic activity in CCl4-induced male C57BL/6J mouse model of liver fibrosis assessed as reduction in sirius red positive area in liver at 10 to 30 mg/kg, ip co-administered daily with CCl4 for 4 weeks by sirius red staining based analysis; type: functional, organism-based; settings: dose 10-30 mg/kg
Mus musculus [25] = experiment: Antifibrotic activity in CCl4-induced male C57BL/6J mouse model of liver fibrosis assessed as downregulation of alpha-SMA gene expression at 10 to 30 mg/kg, ip co-administered daily with CCl4 for 4 weeks by RT-PCR analysis; type: functional, organism-based; settings: dose 10-30 mg/kg
Mus musculus [26] = experiment: Antifibrotic activity in CCl4-induced male C57BL/6J mouse model of liver fibrosis assessed as downregulation of Timp1 gene expression at 10 to 30 mg/kg, ip co-administered daily with CCl4 for 4 weeks by RT-PCR analysis; type: functional, organism-based; settings: dose 10-30 mg/kg
Mus musculus [27] = experiment: Antifibrotic activity in CCl4-induced male C57BL/6J mouse model of liver fibrosis assessed as downregulation of Col1a1 gene expression at 10 to 30 mg/kg, ip co-administered daily with CCl4 for 4 weeks by RT-PCR analysis; type: functional, organism-based; settings: dose 10-30 mg/kg
Mus musculus [28] = experiment: Antifibrotic activity in CCl4-induced male C57BL/6J mouse model of liver fibrosis assessed as downregulation of Col3a1 gene expression at 10 to 30 mg/kg, ip co-administered daily with CCl4 for 4 weeks by RT-PCR analysis; type: functional, organism-based; settings: dose 10-30 mg/kg
Mus musculus [29] = experiment: Antifibrotic activity in CCl4-induced male C57BL/6J mouse model of liver fibrosis assessed as reduction in plasma ALT level at 10 to 30 mg/kg, ip co-administered daily with CCl4 for 4 weeks by enzymatic colorimetric analysis; type: functional, organism-based; settings: dose 10-30 mg/kg
Mus musculus [30] = experiment: Antifibrotic activity in CCl4-induced male C57BL/6J mouse model of liver fibrosis assessed as reduction in plasma AST level at 10 to 30 mg/kg, ip co-administered daily with CCl4 for 4 weeks by enzymatic colorimetric analysis; type: functional, organism-based; settings: dose 10-30 mg/kg
Mus musculus [31] = experiment: Antifibrotic activity in CCl4-induced male C57BL/6J mouse model of liver fibrosis assessed as reduction in plasma total bilirubin level at 10 to 30 mg/kg, ip co-administered daily with CCl4 for 4 weeks by enzymatic colorimetric analysis; type: functional, organism-based; settings: dose 10-30 mg/kg
Mus musculus [32] = experiment: Antifibrotic activity in CCl4-induced male C57BL/6J mouse model of liver fibrosis assessed as reduction in hydroxyproline level in liver at 10 to 30 mg/kg, ip co-administered daily with CCl4 for 4 weeks; type: functional, organism-based; settings: dose 10-30 mg/kg

T1 sequence (P41595 whole entry): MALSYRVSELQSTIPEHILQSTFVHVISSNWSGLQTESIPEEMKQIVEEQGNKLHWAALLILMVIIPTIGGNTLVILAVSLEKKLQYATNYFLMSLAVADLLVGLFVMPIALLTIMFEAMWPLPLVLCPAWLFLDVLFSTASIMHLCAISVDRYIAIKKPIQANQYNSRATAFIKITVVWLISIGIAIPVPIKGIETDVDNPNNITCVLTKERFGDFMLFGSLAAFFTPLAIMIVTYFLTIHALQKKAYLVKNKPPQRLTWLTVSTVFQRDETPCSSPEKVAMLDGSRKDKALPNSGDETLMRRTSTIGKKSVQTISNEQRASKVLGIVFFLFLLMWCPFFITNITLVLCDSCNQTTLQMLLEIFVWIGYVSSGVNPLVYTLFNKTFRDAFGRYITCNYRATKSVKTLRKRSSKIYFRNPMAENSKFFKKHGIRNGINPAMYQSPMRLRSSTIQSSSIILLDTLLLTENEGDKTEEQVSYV
Chain of CYP2C9 (P11712 whole entry): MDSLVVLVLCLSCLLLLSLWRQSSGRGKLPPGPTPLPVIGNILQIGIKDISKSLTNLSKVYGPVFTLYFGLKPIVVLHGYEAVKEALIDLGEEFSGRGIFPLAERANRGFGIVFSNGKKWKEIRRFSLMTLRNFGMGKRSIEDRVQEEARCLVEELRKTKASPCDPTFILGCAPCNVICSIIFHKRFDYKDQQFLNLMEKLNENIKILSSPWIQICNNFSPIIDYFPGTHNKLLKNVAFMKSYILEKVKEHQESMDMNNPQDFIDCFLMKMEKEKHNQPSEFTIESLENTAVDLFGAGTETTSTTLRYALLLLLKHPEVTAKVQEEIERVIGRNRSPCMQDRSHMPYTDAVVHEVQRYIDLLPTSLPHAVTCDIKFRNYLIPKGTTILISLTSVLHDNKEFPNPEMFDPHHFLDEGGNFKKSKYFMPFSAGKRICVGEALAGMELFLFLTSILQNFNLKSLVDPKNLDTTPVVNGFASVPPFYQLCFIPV
Chain of CYP2C19 (P33261 whole entry): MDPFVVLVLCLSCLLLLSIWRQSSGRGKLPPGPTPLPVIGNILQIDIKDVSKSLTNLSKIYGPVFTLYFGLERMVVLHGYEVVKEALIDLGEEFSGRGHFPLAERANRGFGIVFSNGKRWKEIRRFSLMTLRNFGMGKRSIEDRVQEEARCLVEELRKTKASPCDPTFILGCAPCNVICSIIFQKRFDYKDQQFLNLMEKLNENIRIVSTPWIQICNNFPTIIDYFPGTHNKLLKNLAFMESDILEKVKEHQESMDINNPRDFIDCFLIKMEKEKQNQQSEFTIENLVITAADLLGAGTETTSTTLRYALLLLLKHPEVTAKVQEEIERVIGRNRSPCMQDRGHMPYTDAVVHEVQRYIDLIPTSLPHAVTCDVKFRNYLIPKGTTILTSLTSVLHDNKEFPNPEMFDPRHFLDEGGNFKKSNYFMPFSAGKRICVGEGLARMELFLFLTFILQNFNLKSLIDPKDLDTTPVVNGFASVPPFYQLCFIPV
Chain of CYP2D6 (P10635 whole entry): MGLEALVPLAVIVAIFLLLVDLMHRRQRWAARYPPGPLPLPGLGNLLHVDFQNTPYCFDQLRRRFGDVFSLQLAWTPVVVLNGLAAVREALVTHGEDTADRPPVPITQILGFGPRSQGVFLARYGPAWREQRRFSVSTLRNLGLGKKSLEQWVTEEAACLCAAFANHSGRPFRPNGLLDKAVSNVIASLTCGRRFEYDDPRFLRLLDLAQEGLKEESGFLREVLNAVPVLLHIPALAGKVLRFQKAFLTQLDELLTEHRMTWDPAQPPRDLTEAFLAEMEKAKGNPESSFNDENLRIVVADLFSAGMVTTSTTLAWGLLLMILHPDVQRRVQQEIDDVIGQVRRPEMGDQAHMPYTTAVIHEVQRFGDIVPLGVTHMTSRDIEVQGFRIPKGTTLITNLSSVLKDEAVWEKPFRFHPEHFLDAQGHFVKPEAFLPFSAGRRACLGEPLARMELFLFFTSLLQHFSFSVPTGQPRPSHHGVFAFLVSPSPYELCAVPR
Chain of 5-hydroxytryptamine receptor 2A (Homo sapiens) (P28223 whole entry): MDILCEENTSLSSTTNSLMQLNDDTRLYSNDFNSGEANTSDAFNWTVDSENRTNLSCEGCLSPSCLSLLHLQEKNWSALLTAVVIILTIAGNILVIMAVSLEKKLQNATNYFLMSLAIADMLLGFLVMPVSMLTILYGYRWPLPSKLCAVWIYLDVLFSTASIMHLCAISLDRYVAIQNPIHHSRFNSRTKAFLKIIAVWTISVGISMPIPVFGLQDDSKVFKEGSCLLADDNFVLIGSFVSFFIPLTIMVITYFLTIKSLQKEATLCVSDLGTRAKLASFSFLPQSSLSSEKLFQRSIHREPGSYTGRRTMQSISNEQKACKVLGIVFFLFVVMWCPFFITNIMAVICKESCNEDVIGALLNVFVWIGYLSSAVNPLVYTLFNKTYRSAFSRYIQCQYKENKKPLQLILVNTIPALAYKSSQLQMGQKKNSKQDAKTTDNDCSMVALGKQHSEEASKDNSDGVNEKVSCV
Chain of hERG (KCNH2) (Q12809 whole entry): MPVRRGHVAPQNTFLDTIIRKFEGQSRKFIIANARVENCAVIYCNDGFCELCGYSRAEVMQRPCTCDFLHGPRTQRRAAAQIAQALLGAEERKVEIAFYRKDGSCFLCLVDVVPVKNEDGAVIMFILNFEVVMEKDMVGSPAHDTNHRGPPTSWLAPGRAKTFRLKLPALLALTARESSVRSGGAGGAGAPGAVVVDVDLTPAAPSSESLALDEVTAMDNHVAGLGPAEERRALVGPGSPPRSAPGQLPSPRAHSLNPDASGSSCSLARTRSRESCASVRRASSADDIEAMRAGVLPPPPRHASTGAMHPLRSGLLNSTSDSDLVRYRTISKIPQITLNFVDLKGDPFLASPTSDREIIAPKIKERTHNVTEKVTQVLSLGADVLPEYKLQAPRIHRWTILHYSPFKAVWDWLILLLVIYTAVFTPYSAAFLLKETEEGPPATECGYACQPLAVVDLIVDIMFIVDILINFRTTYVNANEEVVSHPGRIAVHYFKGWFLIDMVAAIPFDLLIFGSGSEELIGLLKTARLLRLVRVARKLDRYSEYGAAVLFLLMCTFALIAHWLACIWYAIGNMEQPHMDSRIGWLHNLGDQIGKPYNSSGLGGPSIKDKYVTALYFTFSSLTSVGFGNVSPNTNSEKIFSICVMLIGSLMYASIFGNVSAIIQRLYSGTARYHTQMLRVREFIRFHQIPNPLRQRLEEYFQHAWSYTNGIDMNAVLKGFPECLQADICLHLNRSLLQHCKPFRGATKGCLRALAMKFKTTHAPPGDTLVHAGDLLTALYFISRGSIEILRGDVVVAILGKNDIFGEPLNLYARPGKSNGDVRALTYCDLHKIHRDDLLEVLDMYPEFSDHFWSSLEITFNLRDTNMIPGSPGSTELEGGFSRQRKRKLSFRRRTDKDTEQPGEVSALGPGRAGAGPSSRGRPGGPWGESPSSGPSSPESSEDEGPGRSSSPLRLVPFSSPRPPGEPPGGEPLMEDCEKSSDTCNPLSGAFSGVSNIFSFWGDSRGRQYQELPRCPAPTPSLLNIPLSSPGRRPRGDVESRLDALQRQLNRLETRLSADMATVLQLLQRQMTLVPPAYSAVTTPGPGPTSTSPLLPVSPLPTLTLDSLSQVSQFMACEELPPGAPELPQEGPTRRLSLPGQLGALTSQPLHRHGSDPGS
Chain of CYP3A4 (P08684 whole entry): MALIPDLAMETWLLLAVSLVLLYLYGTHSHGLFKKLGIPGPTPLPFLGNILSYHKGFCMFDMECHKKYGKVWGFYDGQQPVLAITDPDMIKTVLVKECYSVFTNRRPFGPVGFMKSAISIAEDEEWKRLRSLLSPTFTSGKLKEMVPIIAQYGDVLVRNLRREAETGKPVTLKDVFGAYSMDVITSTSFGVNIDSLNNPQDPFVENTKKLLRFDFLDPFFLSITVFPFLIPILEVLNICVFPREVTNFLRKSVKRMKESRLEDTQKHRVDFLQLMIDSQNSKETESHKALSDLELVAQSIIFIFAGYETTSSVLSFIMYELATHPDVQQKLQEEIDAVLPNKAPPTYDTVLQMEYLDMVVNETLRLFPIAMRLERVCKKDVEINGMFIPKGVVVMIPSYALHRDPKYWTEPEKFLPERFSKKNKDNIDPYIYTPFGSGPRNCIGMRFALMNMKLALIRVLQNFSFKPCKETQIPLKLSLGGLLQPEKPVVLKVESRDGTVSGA

Compound: COc1ccc(S(=O)(=O)N[C@H]2CCN(C(=O)[C@@H](N)CC(=O)O)C2)cc1C(=O)Nc1ccccc1Cl
inhibition ([1]; filed as antagonist): 94.3%
IC50 [2]: 0.0807 µM

Compound: COc1ccc(S(=O)(=O)N[C@@H]2CCN(C(=O)C[C@H](N)C(=O)O)C2)cc1C(=O)Nc1ccccc1Cl
inhibition ([1]; filed as antagonist): 100%

Compound: COc1ccc(S(=O)(=O)N[C@@H]2CCNC2)cc1C(=O)Nc1ccccc1Cl
inhibition ([1]; filed as antagonist): 97.8%

Compound: C[C@@H]1CN(C(=N)NCc2ccccc2)N=C1c1cccc(Cl)c1O
IC50 [3]: < 0.001 µM

Compound: COc1ccc(S(=O)(=O)N[C@H]2CCN(C(=O)CC[C@H](N)C(=O)O)C2)cc1C(=O)Nc1ccccc1Cl.Cl
inhibition ([1]; filed as antagonist): 102%
IC50 [2]: 0.00109 µM
concentration at 0.5 h [4]: 440 ng/mL
concentration at 0.5 h [5]: < 31.3 ng/g
remaining at 0.5 h [6]: 91.6%
remaining at 0.5 h [7]: 94.7%
remaining at 0.5 h [8]: 97.6%
inhibition at 2 h, 10 µM (hERG (KCNH2)): 18.6%
inhibition at 20 min, 1 µM (CYP1A2): < 1%
inhibition at 20 min, 1 µM (CYP2C9): < 1%
inhibition at 20 min, 1 µM (CYP2C19): 17.6%
inhibition at 20 min, 1 µM (CYP2D6): < 1%
inhibition at 20 min, 1 µM (CYP3A4): 33.8%
IC50 at 24 h [9]: > 100 µM
IC50 at 24 h [10]: > 100 µM
IC50 at 24 h [11]: > 100 µM
IC50 at 24 h [12]: > 100 µM
IC50 at 24 h [13]: > 100 µM
inhibition [14]: -9.88%
half-life [15]: 1.02 h
AUC(0-t) at 24 h [16]: 810 ng·h/mL
clearance [17]: 34.5 mL/min/kg
Vd [18]: 1.93 L/kg
Activity [19]: Non-toxic
Activity (Mus musculus [20]): Active
Activity (Mus musculus [21]): Active
Activity (Mus musculus [22]): Active
Activity (Mus musculus [23]): Active
Activity (Mus musculus [24]): Active
Activity (Mus musculus [25]): Active
Activity (Mus musculus [26]): Active
Activity (Mus musculus [27]): Active
Activity (Mus musculus [28]): Active
Activity (Mus musculus [29]): Active
Activity (Mus musculus [30]): Active
Activity (Mus musculus [31]): Active
Activity (Mus musculus [32]): Active

Compound: COc1ccc(S(=O)(=O)NC2CCNCC2)cc1C(=O)Nc1ccccc1Cl
inhibition ([1]; filed as antagonist): 96.3%

The remaining lines, values ahead:

inhibition [1]: 20.1%
Compound: COc1ccc(S(=O)(=O)N[C@H]2CCOC2)cc1C(=O)Nc1ccccc1NC(=O)OC(C)(C)C

inhibition ([1]; filed as antagonist): 99%
Compound: COc1ccc(S(=O)(=O)N[C@@H]2CCN(C(=O)OC(C)(C)C)C2)cc1C(=O)Nc1ccccc1Cl

inhibition ([1]; filed as antagonist): 96.1%
Compound: COc1ccc(S(=O)(=O)N[C@H]2CCN(C(=O)OC(C)(C)C)C2)cc1C(=O)Nc1ccccc1Cl
